Data taken from ChEMBL document CHEMBL6134844, “Development of Next-Generation Antimalarial Acridones with Radical Cure Potential” (J Med Chem, 2025).
Active and inactive are the calls of the source. The rule behind the calls is not given here.

What was measured:
Plasmodium yoelii = assay: In vivo antiplasmodial activity against asexual blood-stage (ABS) Plasmodium yoelii MRA-428 infected in 4-day suppression CF1 mouse model assessed as reduction in parasitemia by measuring cured mouse at 60 mg/kg, po single dose treated 24 hrs post infection; format: functional, organism-based
[1] = mouse, microsomes, 1 h
HepG2 = assay: Cytotoxicity against human HepG2 cells assessed as cell viability measured after 48 hrs by MTT assay; format: functional, cell-based; conditions: HepG2, 48 h
[2] = Half life in male ICR-CD1 mouse liver at 40 mg/kg, po; format: ADME, organism-based
[3] = Toxicity in CF1 mouse infected with asexual blood-stage (ABS) Plasmodium yoelii MRA-428 assessed as clinical toxicity at 0.3 to 30 mg/kg, po treated 24 hrs post infection measured after 4 days; format: organism-based; conditions: in vivo, dose 0.3-30 mg/kg
[4] = (§1) Selectivity index, ratio of CC50 for Macaca mulatta hepatocytes to IC50 for antiplasmodial activity against hypnozoite Plasmodium cynomolgi B strain infected in Macaca mulatta hepatocytes incubated with sporozoite containing salivary gland homogenate obtained from dissected Anopheles dirus mosquitoes (infected with Plasmodium cynomolgi B strain) treatment started on day 4 post infection and continued daily for 4 days into fresh changed media until day 8 assessed as Liver stage (LS) activity by measuring prophylactic mode by immunofluorescent staining analysis; format: toxicity, cell-based; conditions: rhesus monkey, read-out: Selectivity Index
[5] = Mutagenicity in Salmonella typhimurium TA98 assessed as background reversion rate up to 10 uM with S-9 metabolic activation by AMES test; format: toxicity; conditions: salmonella enterica subsp. enterica serovar typhimurium
[6] = AUClast in male ICR-CD1 mouse plasma at 40 mg/kg, po; format: ADME, organism-based
Plasmodium cynomolgi [7] = assay: as §1, with “Antiplasmodial” for “Selectivity index, ratio of CC50 for Macaca mulatta hepatocytes to IC50 for antiplasmodial”; format: functional, organism-based; conditions: Hepatocyte
[8] = AUCextrap in male ICR-CD1 mouse liver at 40 mg/kg, po; format: ADME, organism-based
Plasmodium berghei [9] = assay: In vivo antiplasmodial activity against luciferase expressing liver stage Plasmodium berghei ANKA MRA-868 sporozoites infected in Albino C57BL/6 mouse model assessed as visible parasites at 40 mg/kg, po daily measured 24 to 48 hrs by real-time In Vivo Imaging System (IVIS); format: functional, organism-based; conditions: time 24-48 hrs
[10] = as §1, with “radical cure” for “prophylactic”; format: toxicity, cell-based; conditions: rhesus monkey, read-out: Selectivity Index
[11] = as §1, with “schizont” for “hypnozoite”; format: toxicity, cell-based; conditions: rhesus monkey, read-out: Selectivity Index
[12] = AUClast in male ICR-CD1 mouse liver at 40 mg/kg, po; format: ADME, organism-based
[13] = Toxicity in CF1 mouse infected with asexual blood-stage (ABS) Plasmodium yoelii MRA-428 assessed as weight loss at 0.3 to 30 mg/kg, po treated 24 hrs post infection measured after 4 days; format: organism-based; conditions: in vivo, 96 h, dose 0.3-30 mg/kg, time 4 day
[14] = Toxicity in CF1 mouse infected with asexual blood-stage (ABS) Plasmodium yoelii MRA-428 assessed as ruffled hair at 0.3 to 30 mg/kg, po treated 24 hrs post infection measured after 4 days; format: organism-based; conditions: in vivo, 96 h, dose 0.3-30 mg/kg, time 4 day
Plasmodium falciparum [15] = assay: Antiplasmodial activity against asexual blood-stage (ABS) ATV-resistant clinical isolate Plasmodium falciparum Tm90-C2B infected in human erythrocytes assessed as reduction in fluorescence measured after 72 hrs by Malaria SYBR Green I-based Fluorescence (MSF) assay; format: functional, organism-based; conditions: Erythrocyte
Plasmodium falciparum [16] = assay: Antiplasmodial activity against asexual blood-stage (ABS) MDR Plasmodium falciparum Dd2 infected in human erythrocytes assessed as reduction in fluorescence measured after 72 hrs by Malaria SYBR Green I-based Fluorescence (MSF) assay; format: functional, organism-based; conditions: Dd2, Erythrocyte
[17] = Cmax in male ICR-CD1 mouse liver at 40 mg/kg, po; format: ADME, organism-based
[18] = Toxicity in CF1 mouse infected with asexual blood-stage (ABS) Plasmodium yoelii MRA-428 assessed as behavioural change at 0.3 to 30 mg/kg, po treated 24 hrs post infection measured after 4 days; format: organism-based; conditions: in vivo, dose 0.3-30 mg/kg
[19] = Toxicity in CF1 mouse infected with asexual blood-stage (ABS) Plasmodium yoelii MRA-428 assessed as hyperactivity at 0.3 to 30 mg/kg, po treated 24 hrs post infection measured after 4 days; format: organism-based; conditions: in vivo, 96 h, dose 0.3-30 mg/kg, time 4 day
[20] = Tmax in male ICR-CD1 mouse plasma at 40 mg/kg, po; format: ADME, organism-based
Hepatocyte = assay: Cytotoxicity against Macaca mulatta hepatocytes assessed as cell viability measured after 48 hrs by MTT assay; format: toxicity, cell-based; conditions: rhesus monkey, 48 h
[21] = AUC(0 to infinity) in male ICR-CD1 mouse liver at 40 mg/kg, po; format: ADME, organism-based
[22] = Mutagenicity in Salmonella typhimurium TA98 assessed as background reversion rate up to 10 uM without S-9 metabolic activation by AMES test; format: toxicity; conditions: salmonella enterica subsp. enterica serovar typhimurium
[23] = MRTlast in male ICR-CD1 mouse liver at 40 mg/kg, po; format: ADME, organism-based
Plasmodium cynomolgi [24] = assay: as §1, with “Antiplasmodial” for “Selectivity index, ratio of CC50 for Macaca mulatta hepatocytes to IC50 for antiplasmodial”, “schizont” for “hypnozoite”, “radical cure” for “prophylactic”; format: functional, organism-based; conditions: Hepatocyte
[25] = Mutagenicity in Salmonella typhimurium TA100 assessed as background reversion rate up to 10 uM with S-9 metabolic activation by AMES test; format: toxicity; conditions: salmonella enterica subsp. enterica serovar typhimurium
Plasmodium berghei [26] = assay: In vivo antiplasmodial activity against luciferase expressing liver stage Plasmodium berghei ANKA MRA-868 sporozoites infected in Albino C57BL/6 mouse model assessed as protection at 40 mg/kg, po daily measured 24 to 72 hrs by real-time In Vivo Imaging System (IVIS); format: functional; conditions: time 24-72 hrs
Plasmodium cynomolgi [27] = assay: as §1, with “Antiplasmodial” for “Selectivity index, ratio of CC50 for Macaca mulatta hepatocytes to IC50 for antiplasmodial”, “schizont” for “hypnozoite”; format: functional, organism-based; conditions: Hepatocyte
[28] = as §1, with “schizont” for “hypnozoite”, “radical cure” for “prophylactic”; format: toxicity, cell-based; conditions: rhesus monkey, read-out: Selectivity Index
Plasmodium berghei [29] = assay: In vivo antiplasmodial activity against luciferase expressing liver stage Plasmodium berghei ANKA MRA-868 sporozoites infected in Albino C57BL/6 mouse model assessed as protection at 10 mg/kg, po daily measured 24 to 72 hrs by real-time In Vivo Imaging System (IVIS); format: functional
Plasmodium cynomolgi [30] = assay: as §1, with “Antiplasmodial” for “Selectivity index, ratio of CC50 for Macaca mulatta hepatocytes to IC50 for antiplasmodial”, “radical cure” for “prophylactic”; format: functional, organism-based; conditions: Hepatocyte
[31] = Toxicity in CF1 mouse infected with asexual blood-stage (ABS) Plasmodium yoelii MRA-428 assessed as lethargy at 0.3 to 30 mg/kg, po treated 24 hrs post infection measured after 4 days; format: organism-based; conditions: in vivo, 96 h, dose 0.3-30 mg/kg, time 4 day

Row | Structure (SMILES) | Activity (Plasmodium yoelii) | CLH [1] | IC50 (HepG2) | half-life [2] | Activity [3] | selectivity ratio at 96 h [4] | Activity [5] | AUC(0-t) [6] | IC50 (Plasmodium cynomolgi [7]) | AUC [8] | Activity (Plasmodium berghei [9]) | selectivity ratio at 96 h [10] | selectivity ratio at 96 h [11] | AUC(0-t) [12] | Activity [13] | Activity [14] | IC50 (Plasmodium falciparum [15]) | IC50 (Plasmodium falciparum [16]) | Cmax [17] | Activity [18] | also measured
1 | O=c1c2c([nH]c3cc(Oc4ccc(OC(F)(F)F)cc4)c(F)cc13)CCCC2 | Active | 74.9 µL/min/mg | > 200000 nM | 4.3 h | Non-toxic | 5.18 | Non-toxic | 167 ng·h/mL | 600 nM | 0.603% | Active | 1.49 | 31.1 | 5470 ng·h/mL | Non-toxic | Non-toxic | 0.384 nM | 0.268 nM | 654 ng/mL | Non-toxic | Activity [19]: Non-toxic; Tmax [20]: 1 h; CC50 (Hepatocyte): 3110 nM; AUC(0-inf) [21]: 5510 ng·h/mL; Activity [22]: Non-toxic; MRT last [23]: 5.64 h; IC50 (Plasmodium cynomolgi [24]): 2410 nM; Activity [25]: Non-toxic; Activity (Plasmodium berghei [26]): 100%; IC50 (Plasmodium cynomolgi [27]): 100 nM; selectivity ratio at 96 h [28]: 1.29; Activity (Plasmodium berghei [29]; time lower 24.0 hrs, time upper […]): Not active; Out Of 5 - 0 Mouse Cured; IC50 (Plasmodium cynomolgi [30]): 2080 nM; Activity [31]: Non-toxic
2 | O=c1c2c([nH]c3cc(Oc4ccc(OC(F)(F)F)cc4)ccc13)CCCC2 | Active | 117 µL/min/mg | 99400 nM | 2.84 h | Non-toxic | 1.79 | Non-toxic | 472 ng·h/mL | 340 nM | 0.12% | Active | 1.11 | 4.69 | 32900 ng·h/mL | Non-toxic | Non-toxic | 0.295 nM | 0.253 nM | 6080 ng/mL | Non-toxic | Activity [19]: Non-toxic; Tmax [20]: 1 h; CC50 (Hepatocyte): 610 nM; AUC(0-inf) [21]: 33000 ng·h/mL; Activity [22]: Non-toxic; MRT last [23]: 5.16 h; IC50 (Plasmodium cynomolgi [24]): 380 nM; Activity [25]: Non-toxic; Activity (Plasmodium berghei [26]): 100%; IC50 (Plasmodium cynomolgi [27]): 130 nM; selectivity ratio at 96 h [28]: 1.61; Activity (Plasmodium berghei [29]; time 24-72 hrs): 100%; IC50 (Plasmodium cynomolgi [30]): 550 nM; Activity [31]: Non-toxic
